“Also recorded” adds a separate entry of the source.
What was measured:
LNCaP cells = experiment: MTT viability assay in LNCaP cells; assay type: cell-based, human; details: 1 or 5 μmol/L, 3 to 6 days
Description: (§1) LNCaP and MCF-7 cells were plated in 96-well plates and treated with 1 or 5 μmol/L test substances for 3 to 6 days. Cell viability following treatments was assayed by MTT. All experiments were conducted at least twice, and weighted results from all experiments are shown. *p<0.005 of BGP-15 relative to vitamin D3, **p<0.001 of BGP-15 relative to vitamin D3 and to calcipotriene.
(§2) LNCaP and MCF-7 cell-lines are widely used models for human prostate and mammary carcinomas respectively. Following BGP-15 purification and structural elucidation (FIG. 12), the effect of calcipotriene and BGP-15 on the viability of both LNCaP and MCF-7 cells was tested in-vitro by using the MTT assay, and was compared with the effect obtained by vitamin D3 (calcitriol).

MCF-7 cells = experiment: MTT viability assay in MCF-7 cells; assay type: cell-based, human; details: MCF-7, 1 or 5 μmol/L, 3 to 6 days
Description: as §1, §2

HT-29, MCF-7, and LNCaP = experiment: Activity against cell lines of human origin; assay type: cell-based
[1] = tested on: HT-29 human colon cancer cells; experiment: In vivo anti-tumor activity, HT-29 tumors in nude mice; details: for tumor size relative to controls at 30 days after cancer cell injection / size of tumors versus vehicle-treated control mice: HT-29 sc in nude mice; for tumor size relative to controls at 30 days after cancer cell injection: 2 μg/kg ip; for size of tumors versus vehicle-treated control mice: 2 μg/kg ip from day 20; for weight loss or observable adverse effects: nude mice, 2 μg/kg ip three times per week
Description: In vivo anti-tumor activity of the novel derivatives of calcipotriol: Experiments were carried out to determine the ability of BGP-13 and BGP-15 to inhibit the growth of human tumor cells in vivo. […] Nude mice received a subcutaneous (sc) injection of HT-29 human colon cancer cells. At various time intervals after the administration of the tumor cells, the mice received three times per week intraperitoneal injections of BGP-13 and BGP-15 at a dose of 2 μg/kg. […] In one experiment 12 nude mice, which received a s.c. injection of HT-29, were divided into three groups. Starting from day 20 after tumor injection, 2 groups of the mice received ip injections of BGP-13 and BGP-15 respectively. […] At 30 days after cancer cell injection, the tumors in the treated group were half the size of the tumors in controls (FIG. 14).

[2] = Calcium metabolic model in rats; assay type: in vivo; details: 20 ng daily for six days
Description: The clinical use of vitamin D3 as an anti-cancer agent is limited by its toxicity and concerns the possible development of hypercalcemia or hypercalciuria in treated patients. The calcium levels in rat blood, and the total daily secretion of calcium in rat urine were evaluated following daily treatments of 20 ng of vitamin D3, calcipotriene or BGP-15 for six days as shown in FIG. 15.

[3] = tested on: LNCaP human prostate carcinoma cell line; experiment: Neutral-Red viability assay in LNCaP cells; assay type: cell-based; details: for antiproliferative effect (viability assay): 30 μM, 24 hours
Description: (§3) Cell culture: The following human cell lines (1) LNCaP—human prostate carcinoma cell line (2) MCF-7—human breast carcinoma cell line, and (3) GA—human melanoma cell line (3) HaCaT—immortalizes normal human skin keratinocytes were tested. Cells were inoculated in RPMI 1640 (LNCaP and GA) or Dulbecco modified eagle medium-DMEM (MCF-7 and HaCaT) supplemented with 10% heat inactivated fetal calf serum, 200 μM L-glutamine, 10 units/ml Penicillin and 10 μgr/ml Streptomycin. The cells were kept at 37° C. in a 5% CO2 humidified atmosphere.
(§4) The direct effect of the compound compared to free calcipotriene and vitamin D3 in the viability and proliferation level of cultured cells was assessed in vitro using cultured Cells. The cells were inoculated in 0.2 ml fresh medium. After 24 at 37° C. in a 5% CO2 humidified atmosphere, the medium was replaced with a fresh medium containing 0.5% ethanol and 30, 5, 1 and 0.1 μM test substance. Medium containing 0.5% ethanol without test compounds was used for the control cells. Cell growth and proliferation was assayed by Neutral-Red assay (evaluated by measuring the absorbance of the dye following 3 hours incubation, in 540 nm) at the stated times.

[4] = tested on: MCF-7 human breast carcinoma cell line; experiment: Neutral-Red viability assay in MCF-7 cells; assay type: cell-based; details: MCF-7, 30 μM, 24 hours
Description: as §3, §4

[5] = tested on: HaCaT immortalizes normal human skin keratinocytes; experiment: Neutral-Red viability assay in HaCaT cells; assay type: cell-based
Description: as §3, §4

p21^WAF1 = experiment: Western blot of p21 expression in LNCaP cells; assay type: cell-based, human; details: 100 nM, 48 hours
Description: Cells were incubated for 5 minutes at room temperature in 100 μl of 1% SDS lysis buffer. Samples were then collected into eppendorfs, incubated for 10 minutes at 100° C., and centrifuged at 14,000 rpm for 10 minutes. Supernatants were transferred into new tubes and pellets were discarded. Determination of protein concentration was conducted using the Bradford assay. […] protein of each sample was loaded on PVDF membranes and incubated with anti p21 antibody (Santa Cruz Biotechnology, Santa Cruz, Calif., U.S.A).

HaCaT cells = experiment: MTT and NR viability assays for HaCaT cells (FIG. 7); assay type: cell-based, human; set-up: dose or concentration left out as unconfirmed; details: (for 24 hours)
Description: FIG. 7 is a bar graph showing the results of a MTT and NR viability assays for HaCaT cells treated with 30 µM (for 24 hours) of 1α,25(OH)2 vitamin D3, calcipotriol (CPT), and BGP-13.
Viability of HaCaT cells in the presence of three vitamin D3 derivatives, 1α,25(OH)2 D3 (calcitriol), and BGP-013 was studied by MTT assay.

HaCaT keratinocytes = experiment: Cellular entry into HaCaT keratinocytes by HPLC; assay type: in vitro ADME, human; details: for entry into keratinocytes: HaCaT cultures, HPLC of external and internal fractions; for cell internalization normalized per cell: 0.5×10^6 to 9.7×10^6 cells, data not shown
Description: (§5) External and internal fractions of HaCaT cultures (0.5×10^6, 1×10^6, 3×10^6, 5×10^6 and 9.7×10^6 cells) were analyzed by HPLC.

[6] = Stability in the external medium; assay type: in vitro ADME; details: relative to CPT
Description: as §5

[7] = CPT metabolite in rat skin
Excerpt: LC/MS analysis has confirmed that the metabolite peak appeared at BGP-13's retention time was indeed this derivative (FIG. 10). […] The formation of reduced levels of this metabolite is probably due to the poor penetration of calcipotriol into the skin. Therefore, intracellular BGP-13 is an […] product of the internalized CPT with reactive oxygen species (ROS) such as singlet oxygen. This metabolic pathway of calcipotriol may have a role in scavenging ROS and reducing inflammatory processes in cells and tissue.

[8] = Reaction with singlet oxygen (endoperoxide-naphthalene trapper); details: room temperature, product detected by TLC, LC-MS
Excerpt: The trapper, endoperoxide-naphthalene, was converted into naphthalene and released exclusively singlet oxygen at room temperature (FIG. 11). Combining calcipotriol with the endoperoxide has created a new product that was first detected by TLC as BGP-13. LC-MS has confirmed that this indeed is the substance.

Structure (SMILES) | cell survival (MTT) (LNCaP cells) | cell survival (MTT) (MCF-7 cells) | activity against cell lines of human origin (HT-29, MCF-7, and LNCaP) | tumor size relative to controls at 30 days after cancer cell injection [1] | size of tumors versus vehicle-treated control mice [1] | weight loss or observable adverse effects [1] | hypercalcemia (calcium levels in rat blood) [2] | hypercalciuria (total daily secretion of calcium in rat urine) [2] | antiproliferative effect (viability assay) [3] | p21 expression (p21^WAF1) | entry into keratinocytes (HaCaT keratinocytes) | cell internalization normalized per cell (HaCaT keratinocytes; HaCaT) | further results
C=C1/C(=C\C=C2/CCC[C@@]3(C)C2CC[C@@H]3C(C)/C=C/C(Cl)C2CC2)C[C@@H](O)C[C@@H]1O (some centres unmarked) [Calci-Cl] | reduce prostate and breast cancer cells survival | reduce prostate and breast cancer cells survival | active at least against three cell lines | half the size | significantly smaller | did not cause either weight loss or any observable adverse effects | do not generate hypercalcemia | do not generate hypercalcemia or hypercalciuria | – | – | – | – | –
C=C1/C(=C\C=C2/CCC[C@@]3(C)C2CC[C@@H]3C(C)C2C=C(C3CC3)OO2)C[C@@H](O)C[C@@H]1O (some centres unmarked) [Compound II, Calci-dioxole] | – | – | active at least against three cell lines | half the size | significantly smaller | did not cause either weight loss or any observable adverse effects | – | – | much more potent antiproliferative effect on the LNCaP and MCF-7 cancer cells as compared to HaCaT cells; also recorded: significantly high efficacy; also recorded: much more potent antiproliferative effect on LNCaP and MCF-7 cancer cells than on HaCaT cells; also recorded: much more potent antiproliferative effect on LNCaP cells than calcipotriol alone | not mediated through increased p21 expression | approximately 60 % of the applied substance | constant even at a high cell density | mortality (viability assay) ([3]; 5 μM, 6 days): higher mortality than cells exposed to calcipotriol alone; antiproliferative effect (viability assay) ([3]; listed as BGP-13): much more potent antiproliferative effect on LNCaP cells than calcipotriol alone; antiproliferative effect (viability assay) [4]: much more potent antiproliferative effect on the LNCaP and MCF-7 cancer cells as compared to HaCaT cells; also recorded: much more potent antiproliferative effect on LNCaP and MCF-7 cancer cells than on HaCaT cells; selectivity for carcinogenic versus non-carcinogenic cells ([5]; HaCaT compared with cancer cell lines): more selective for carcinogenic cells; also recorded: might have a less potent effect on non-carcinogenic cells than on carcinogenic cells; potency of treatment (viability assay) ([5]; HaCaT, 5 μM and 1 μM, 6 days): less potent than treatments with calcitriol and calcipotriol; inhibition of proliferation of keratinocytes (MTT assay) (HaCaT cells): inhibited the proliferation of the keratinocytes at the same rate and extent as CPT or calcitriol; intracellular permeation as fraction of the total quantity momentarily present in the cell culture (HaCaT keratinocytes; HaCaT): enhanced intracellular permeation increased its stability by preventing degradation in the medium; stability in the medium [6]: significantly less stable in the medium relative to CPT
C=C1/C(=C\C=C2/CCC[C@]3(C)[C@@H]([C@H](C)/C=C/[C@@H](O)C4CC4)CC[C@@H]23)C[C@@H](O)C[C@@H]1O [calcipotriol, reference compound] | reduce prostate and breast cancer cells survival | reduce prostate and breast cancer cells survival | – | – | – | – | do not generate hypercalcemia | do not generate hypercalcemia or hypercalciuria | less efficacious; also recorded: relatively lower anticancer effect | increased p21 expression | comparable | constant even at a high cell density | metabolite BGP-13 in rat skin [7]: found at low levels; action towards singlet oxygen [8]: antioxidant/quencher of singlet oxygen
C=C1/C(=C\C=C2/CCC[C@]3(C)[C@@H]([C@H](C)CCCC(C)(C)O)CC[C@@H]23)C[C@@H](O)C[C@@H]1O [calcitriol] | reduce prostate and breast cancer cells survival | reduce prostate and breast cancer cells survival | – | – | – | – | – | – | less efficacious; also recorded: relatively lower anticancer effect | increased p21 expression | – | – | –

Source: US8716334B2, “Substituted cyclohexylidene-ethylidene-octahydro-indene compounds” (Ben Gurion University of the Negev Research and Development …, priority 2008, dated 2014)
